How the values were obtained:
ERK1/2 = ERK1/2 phosphorylation in N2a cells, western or dot blotting; format: cell-based, murine; details: 10 minutes; for ERK1/2 phosphorylation (phospho-ERK/ERK): synthetic peptides, 10 μM
Experimental: Protein level and relative phosphorylation was assessed by western blotting. Briefly, upon a wash in PBS, cells were solubilized in lysis buffer (150 mM NaCl, 50 mM HEPES, 0.5% NP40, 1% sodium-deoxycholate). After 1 hour under mild agitation, the lysate was clarified by centrifugation for 20 min at 16,000 g. All experimental procedures were performed at 4° C. Protein concentrations were evaluated via Bradford assay (Bio-Rad, USA). For Western blotting experiments, an equal amount of proteins was diluted with 0.25% 5× Laemmli buffer. The samples were separated on 10% SDS-PAGE gels which were transferred onto nitrocellulose membrane (Sigma-Aldrich) at 80 V for 120 min at 4° C. Primary antibodies were: Beta-actin (Santa Cruz Biotechnology, sc-47778), ALK (Santa Cruz Biotechnology, sc-398791), N-myc (Santa Cruz Biotechnology, sc-56729), Phospho-p44/42 MAPK (Erk1/2) (Thr202/Tyr204) (Cell Signaling Technology), p44/42 MAPK (Erk1/2) (137F5) Rabbit mAb (Cell Signaling Technology), Akt (pan) (11E7) Rabbit mAb (Cell Signaling Technology), Phospho-Akt (Ser473) (D9E) XP® Rabbit mAb (Cell Signaling Technology), S6 Ribosomal Protein (5G10) Rabbit mAb (Cell Signaling Technology). Antibodies were applied overnight in blocking buffer (20 mM Tris, pH 7.4, 150 mM NaCl, 0.1% Tween 20, and 5% nonfat dry milk). Proteins were detected using the ECL prime detection system (GE Healthcare). The ECL signals were acquired with the imaging ChemiDoc Touch system (Bio Rad Laboratory Italy, Segrate, Italy). The optical density of the specific bands was quantified with ImageLab software (Bio Rad).
ALK triggers a signaling cascade that involves ERK and AKT kinases phosphorylation.
Additionally, the N2a cells were treated with the following synthetic peptides: the synthetic version of PepA-1 (synPepA-1), a scramble peptide including the GDKISV sequence (scr-GDKISV, substituting the W, tryptophan, that can undergo oxidation, with I, Isoleucine), and a scramble peptide (10 μM, 10 minutes). […]

[1] = system: A549 (adenocarcinoma alveolar basal epithelial cells); assay: Growth of human cancer-derived cell line, MTT assay; format: cell-based; details: 200 ng daily, vs GFP
Experimental: (§1) The 3-(4,5-dimethylthiazol-2-yl)-2,5-diphenyl tetrazolium bromide (MTT) assay was performed to evaluate culture vitality. N2a cells were cultured in a 96-well plate at a concentration of 5×10^3 cell/cm^2. Treatment condition is indicated in the result section. At the end of the treatment, the MTT solution was added to the cell medium at a final concentration of 0.25 mg/mL. The incubation lasted 30 minutes at 37° C. Next, the medium was removed and the formazan precipitates were collected in DMSO (200 μL). The absorbance was measured at 570 nm using a spectrophotometer (Varioskan LUX, Thermofisher) as a proxy for cell viability. Relative cell viability fold is expressed over the control condition.
(§2) Next, the capability of Negr1 and peptide PepA to halt the growth of human cancer-derived cell lines, namely U87 (glioblastoma), SK-Mel5 (melanoma), MCF7 (breast adenocarcinoma), A549 (adenocarcinoma alveolar basal epithelial cells), and SH-SY5Y (neuroblastoma) was tested. To this aim, each line was treated daily with 200 ng GFP, rNegr1, or PepA. At DIV5, cellular growth was evaluated by MTT assay. […] Such results are in good agreement with the expression of the receptor ALK, that has been experimentally detected in cancer cell lines of ectodermal origin (including small cell lung carcinoma, breast carcinoma, melanoma, neuroblastoma, and glioblastoma) (Dirks et al. 2002).

SK-Mel5 (melanoma) = assay: as above; format: cell-based; details: 200 ng daily, vs GFP
Experimental: as §1, §2

SH-SY5Y (neuroblastoma) = assay: as above; format: cell-based; details: 200 ng daily, vs GFP
Experimental: as §1, §2

U87 (glioblastoma) = assay: as above; format: cell-based; details: 200 ng daily, vs GFP
Experimental: as §1, §2

[2] = system: MCF7 (breast adenocarcinoma); assay: as above; format: cell-based; details: 200 ng daily, vs GFP
Experimental: as §1, §2

N2a cells [3] = assay: N2a proliferation, cell number at DIV5; format: cell-based, murine; details: 200 ng daily, vs GFP
Experimental: Next, 10,000 naive N2a cells were seeded and treated daily with 200 ng Negr1, PepA, PepB, PepC, or GFP. At DIV5, cell number was evaluated.

N2a cells [4] = assay: N2a cell growth, MTT assay; format: cell-based, murine
Experimental: as §1
At the physiological level, Negr1 exists as a GPI-anchored membrane-bound protein and as a soluble protein released upon metalloprotease cleavage (Sanz et al. 2015; Pischedda and Piccoli 2015). Thus, the inventors studied whether ectopic treatment with soluble recombinant Negr1 (Negr1) might modulate cancer cell growth. […] At DIV5, cellular growth was evaluated by MTT assay.
To further narrow down the minimal biologically active sequence within PepA, the PepA structure was analysed in silico. […] At DIV5, cellular growth was evaluated by MTT assay.

DGASKGAWLNRSSIIFAGVWGSKDDPRVSISTL (PepA-1-6aa scramble) [reference compound]
ERK1/2 phosphorylation (phospho-ERK/ERK) (ERK1/2): did not alter ERK phosphorylation

Negr1: soluble recombinant full-length Negr1 protein, Strep-FLAG tagged, expressed and purified from HEK293 cells
growth of A549 cells (MTT) at DIV5 [1]: significantly reduce the growth | growth of SK-Mel5 cells (MTT) at DIV5 (SK-Mel5 (melanoma)): significantly reduce the growth | growth of SH-SY5Y cells (MTT) at DIV5 (SH-SY5Y (neuroblastoma)): significantly reduce the growth | growth of U87 cells (MTT) at DIV5 (U87 (glioblastoma)): significantly reduce the growth | growth of MCF7 cells (MTT) at DIV5 [2]: significantly reduce the growth | N2a proliferation (cell number) at DIV5 (N2a cells [3]): significantly reduced N2a proliferation | N2a growth (MTT) at DIV5 (N2a cells [4]; 200 ng daily, vs GFP): significantly reduced N2a growth | N2A growth / cellular vitality (MTT) at DIV5 (N2a cells [4]; 3 μM daily, vs vehicle (Lorlatinib) or GFP (rNegr1, PepA-1)): impaired N2A growth to a similar extent

GDKWSV (minimum active sequence) [GDKWSV peptide]
ERK1/2 phosphorylation (dot-blot) (ERK1/2; 30 nM): severe reduction of ERK1/2 phosphorylation

NRGDKISVSVSSSSGGRAWDWDIAKPGLAILTF (Scramble-GDKISV) [scr-GDKISV]
ERK1/2 phosphorylation (phospho-ERK/ERK) (ERK1/2): reduced ERK1/2 phosphorylation

Reference: patent publication US20250049888A1, “USE OF THE NEGR1 PROTEIN AND BIOLOGICALLY ACTIVE FRAGMENTS THEREOF IN THE THERAPEUTIC TREATMENT OF ALK-RELATED DISEASES” (FONDAZIONE TELETHON ETS (70%), priority 2021, published 2025)
